Source: patent publication US7321027B2, “Small technetium-99m and rhenium labeled agents and methods for imaging tumors” (President and Fellows of Harvard College, priority 2000, dated 2008)

Tested on: MCF-7 human breast cancer cell line
Assay: In-vitro tumor-cell uptake, breast cancer cells
Format: cell-based
Details: 37° C., MCF-7 cell line
Description: In-Vitro Tumor-Uptake Studies. Tumor-cell uptake studies in B16/F0 murine melanoma cells were performed with complexes Tc-(Compound A-D and H-M) at 37° C. and 4° C. Additionally, tumor-cell uptake of complex Tc-(Compound A) was investigated in another rapidly dividing MCF-7 human breast cancer cell line.
In-Vitro Cell Studies. […] After being washed with 12 mL Dulbecco's Phosphate-Buffered Saline (PBS) (Gibco), pH 7.2 (Ca^2+- and Mg^2+-free; g/L KCl, 0.20; KH2PO4, 0.20; NaCl, 8.00; Na2HPO4, 1.15), the cells were counted and resuspended in 8 mL S-MEM (Gibco) (Ca^2+ free, with reduced Mg^2+ content) and stored at 4° C. until use.
For in-vitro tumor-cell accumulation studies, 5×10^6 cells in polypropylene test tubes were incubated at 37° C. or 4° C., with intermittent agitation with 1-2 μCi (5 μL) ^99mTc-complex Tc-(Compound A-D) in a total volume of 350 μL S-MEM. […] Both fractions were counted for radioactivity in a γ-counter (WALLAC, 1480 WIZARD 3″™). The amount of supernatant in the cell pellet was determined to be <1% in separate experiments. The percentage cell uptake of the ^99mTc-complex was calculated as: % uptake=[cpm(pellet)]/[cpm(pellet)+cpm(supernatant)]×100

SMILES: CCN(CC)CCN1CC[S][99Tc]2(=[O])[S]CC[N]2C(=O)C1 (stereo not shown) [Tc-(Compound A)]
- maximum cell uptake: 6%
